“Also recorded” adds a separate entry of the source.
What was measured:
[1] = test system: HCT116; test: MTT in vitro cytotoxicity assay; assay type: cell-based; details: Homo sapiens, HCT-116, HCT116, Colon, 72 h, read-out: IC50 growth inhibition
Protocol: (§1) The inhibitory effect of Sepin-1 on cell growth was assayed using the 3-(4,5-dimethylthiazol-2yl)-2,5-diphenyl-tetrazolium bromide (MTT) colorimetric dye reduction method (Cancer Chemother. Pharmacol., 2006, 58, 13-23). One hundred thirty-five μl of exponentially growing cancer cells were plated at a density of 0.4-1.0×10^5 cells/well in a 96-well microtiter plate. After 16 h, Sepin-1 at specified concentrations was added to each well. After 72 h of continuous drug exposure, 15 μl of 5 mg/ml MTT was added to each well and the plates were incubated for 4 h at 37° C. Medium was replaced with 150 μl of DMSO to solubilize the formazan, and the optical density (OD) was measured at 550 nm using a microplate spectrophotometer (Anthos Analytical, Durham, N.C., USA). Cell viability was calculated by subtracting the background OD of media alone from the OD of test wells, then dividing by the OD of the control (untreated) wells. Replicates of 3 wells were used for each drug concentration. The in vitro cytotoxicity assay was repeated once and the IC50 reported was the average of two independent experiments.

[2] = test system: KCNR; test: MTT in vitro cytotoxicity assay; assay type: cell-based; details: Homo sapiens, Neuroblastoma, 72 h, read-out: IC50 growth inhibition
Protocol: as §1

[3] = test system: Molt4; test: MTT in vitro cytotoxicity assay; assay type: cell-based; details: Homo sapiens, MOLT-4, Molt4, Leukemia, 72 h, read-out: IC50 growth inhibition
Protocol: as §1

[4] = test system: LAN-5; test: MTT in vitro cytotoxicity assay; assay type: cell-based; details: Homo sapiens, LA-N-5, LAN-5, Neuroblastoma, 72 h, read-out: IC50 growth inhibition
Protocol: as §1

[5] = test system: SK-N-AS; test: MTT in vitro cytotoxicity assay; assay type: cell-based; details: Homo sapiens, Neuroblastoma, 72 h, read-out: IC50 growth inhibition
Protocol: as §1

[6] = test system: SHEP; test: MTT in vitro cytotoxicity assay; assay type: cell-based; details: Homo sapiens, Neuroblastoma, 72 h, read-out: IC50 growth inhibition
Protocol: as §1

[7] = test system: SY5Y; test: MTT in vitro cytotoxicity assay; assay type: cell-based; details: Homo sapiens, Neuroblastoma, 72 h, read-out: IC50 growth inhibition
Protocol: as §1

[8] = test system: TT; test: MTT in vitro cytotoxicity assay; assay type: cell-based; details: Homo sapiens, Thyroid, 72 h, read-out: IC50 growth inhibition
Protocol: as §1

[9] = test system: Raji; test: MTT in vitro cytotoxicity assay; assay type: cell-based; details: Homo sapiens, Leukemia, 72 h, read-out: IC50 growth inhibition
Protocol: as §1

[10] = test system: Jurkat; test: MTT in vitro cytotoxicity assay; assay type: cell-based; details: Homo sapiens, Leukemia, 72 h, read-out: IC50 growth inhibition
Protocol: as §1

[11] = test system: MDA436; test: MTT in vitro cytotoxicity assay; assay type: cell-based; details: Homo sapiens, MDA436, Breast, 72 h, read-out: IC50 growth inhibition
Protocol: as §1

[12] = test system: JM1; test: MTT in vitro cytotoxicity assay; assay type: cell-based; details: Homo sapiens, JM1, Leukemia, 72 h, read-out: IC50 growth inhibition
Protocol: as §1

[13] = test system: CHLA-02-ATRT; test: MTT in vitro cytotoxicity assay; assay type: cell-based; details: Homo sapiens, Brain, 72 h, read-out: IC50 growth inhibition
Protocol: as §1

[14] = test system: IMR-32; test: MTT in vitro cytotoxicity assay; assay type: cell-based; details: Homo sapiens, IMR-32, Neuroblastoma, 72 h, read-out: IC50 growth inhibition
Protocol: as §1

[15] = test system: MDAMB231; test: MTT in vitro cytotoxicity assay; assay type: cell-based; details: Homo sapiens, MDA-MB-231, MDAMB231, Breast, 72 h, read-out: IC50 growth inhibition
Protocol: as §1

[16] = test system: MCF10F; test: MTT in vitro cytotoxicity assay; assay type: cell-based; details: Homo sapiens, MCF-10F, Breast, 72 h, read-out: IC50 growth inhibition
Protocol: as §1

[17] = test system: HBL100; test: MTT in vitro cytotoxicity assay; assay type: cell-based; details: Homo sapiens, HBL-100, HBL100, Breast, 72 h, read-out: IC50 growth inhibition
Protocol: as §1

[18] = test system: CHP212; test: MTT in vitro cytotoxicity assay; assay type: cell-based; details: Homo sapiens, CHP-212, CHP212, Neuroblastoma, 72 h, read-out: IC50 growth inhibition
Protocol: as §1

[19] = test system: HL60; test: MTT in vitro cytotoxicity assay; assay type: cell-based; details: Homo sapiens, HL-60, HL60, Leukemia, 72 h, read-out: IC50 growth inhibition
Protocol: as §1

[20] = test system: NGP; test: MTT in vitro cytotoxicity assay; assay type: cell-based; details: Homo sapiens, Neuroblastoma, 72 h, read-out: IC50 growth inhibition
Protocol: as §1

[21] = test system: SK-BR-3; test: MTT in vitro cytotoxicity assay; assay type: cell-based; details: Homo sapiens, SK-BR-3, Breast, 72 h, read-out: IC50 growth inhibition
Protocol: as §1

[22] = test system: A549; test: MTT in vitro cytotoxicity assay; assay type: cell-based; details: Homo sapiens, A549, Lung, 72 h, read-out: IC50 growth inhibition
Protocol: as §1

[23] = test system: SK-N-BE(2); test: MTT in vitro cytotoxicity assay; assay type: cell-based; details: Homo sapiens, SKNBE2, Neuroblastoma, 72 h, read-out: IC50 growth inhibition
Protocol: as §1

[24] = target: T1, Separase (Homo sapiens, UniProt Q14674); test: In vitro cleavage of Myc-Rad21 assay; assay type: biochemical; details: Sepin-1 50 μm; in vitro transcribed and translated Myc-Rad21
T1 construct: made in house; host or cells: 293T cells; released from IgG-Agarose by TEV protease
Protocol: Myc-Rad21 protein was prepared by using pCS2MT Rad21 plasmid ([…]) as the template and the TNT SP6 High-Yield Wheat Germ Protein Expression kit (Promega, Madison, Wis.). Myc-Rad21 protein was mixed with Separase with or without the presence of Sepin-1. The final concentration of Sepin-1 was 50 μM. The reaction mixture was incubated in a 37° C. water bath for 1 h. The cleavage of myc-Rad21 was immunoblotted with Rad21 pAb.

[25] = test system: Molt4 cells; test: Immunoblotting for apoptosis induction; assay type: cell-based, human; details: various concentrations of Sepin-1, 24 h, Western blot
Protocol: To determine the mechanism of cell growth inhibition induced by Sepin-1, Applicants performed immunoblotting to investigate if apoptosis is induced after Molt4 cells were treated with Sepin-1. Activation of caspase-3 and cleavage of poly(ADP-ribose) polymerase (Parp-1) are two commonly used parameters in determination of apoptosis. Applicants used Etoposide as a positive control, which is a well-known chemotherapy agent that induces DNA damage by interacting with topoisomerase II. […] In addition, Applicants observed that the effect of Sepin-1 on the activation of caspase-3 and degradation of Parp-1 is similar to that of Etoposide (FIG. 8F).
Preparation of protein samples and Western blot were performed as described previously (J Cell Biol, 2008, 183, 1019-1031; PLoS. ONE., 2013, 8, e69458).

T1 sequence (Q14674 whole entry): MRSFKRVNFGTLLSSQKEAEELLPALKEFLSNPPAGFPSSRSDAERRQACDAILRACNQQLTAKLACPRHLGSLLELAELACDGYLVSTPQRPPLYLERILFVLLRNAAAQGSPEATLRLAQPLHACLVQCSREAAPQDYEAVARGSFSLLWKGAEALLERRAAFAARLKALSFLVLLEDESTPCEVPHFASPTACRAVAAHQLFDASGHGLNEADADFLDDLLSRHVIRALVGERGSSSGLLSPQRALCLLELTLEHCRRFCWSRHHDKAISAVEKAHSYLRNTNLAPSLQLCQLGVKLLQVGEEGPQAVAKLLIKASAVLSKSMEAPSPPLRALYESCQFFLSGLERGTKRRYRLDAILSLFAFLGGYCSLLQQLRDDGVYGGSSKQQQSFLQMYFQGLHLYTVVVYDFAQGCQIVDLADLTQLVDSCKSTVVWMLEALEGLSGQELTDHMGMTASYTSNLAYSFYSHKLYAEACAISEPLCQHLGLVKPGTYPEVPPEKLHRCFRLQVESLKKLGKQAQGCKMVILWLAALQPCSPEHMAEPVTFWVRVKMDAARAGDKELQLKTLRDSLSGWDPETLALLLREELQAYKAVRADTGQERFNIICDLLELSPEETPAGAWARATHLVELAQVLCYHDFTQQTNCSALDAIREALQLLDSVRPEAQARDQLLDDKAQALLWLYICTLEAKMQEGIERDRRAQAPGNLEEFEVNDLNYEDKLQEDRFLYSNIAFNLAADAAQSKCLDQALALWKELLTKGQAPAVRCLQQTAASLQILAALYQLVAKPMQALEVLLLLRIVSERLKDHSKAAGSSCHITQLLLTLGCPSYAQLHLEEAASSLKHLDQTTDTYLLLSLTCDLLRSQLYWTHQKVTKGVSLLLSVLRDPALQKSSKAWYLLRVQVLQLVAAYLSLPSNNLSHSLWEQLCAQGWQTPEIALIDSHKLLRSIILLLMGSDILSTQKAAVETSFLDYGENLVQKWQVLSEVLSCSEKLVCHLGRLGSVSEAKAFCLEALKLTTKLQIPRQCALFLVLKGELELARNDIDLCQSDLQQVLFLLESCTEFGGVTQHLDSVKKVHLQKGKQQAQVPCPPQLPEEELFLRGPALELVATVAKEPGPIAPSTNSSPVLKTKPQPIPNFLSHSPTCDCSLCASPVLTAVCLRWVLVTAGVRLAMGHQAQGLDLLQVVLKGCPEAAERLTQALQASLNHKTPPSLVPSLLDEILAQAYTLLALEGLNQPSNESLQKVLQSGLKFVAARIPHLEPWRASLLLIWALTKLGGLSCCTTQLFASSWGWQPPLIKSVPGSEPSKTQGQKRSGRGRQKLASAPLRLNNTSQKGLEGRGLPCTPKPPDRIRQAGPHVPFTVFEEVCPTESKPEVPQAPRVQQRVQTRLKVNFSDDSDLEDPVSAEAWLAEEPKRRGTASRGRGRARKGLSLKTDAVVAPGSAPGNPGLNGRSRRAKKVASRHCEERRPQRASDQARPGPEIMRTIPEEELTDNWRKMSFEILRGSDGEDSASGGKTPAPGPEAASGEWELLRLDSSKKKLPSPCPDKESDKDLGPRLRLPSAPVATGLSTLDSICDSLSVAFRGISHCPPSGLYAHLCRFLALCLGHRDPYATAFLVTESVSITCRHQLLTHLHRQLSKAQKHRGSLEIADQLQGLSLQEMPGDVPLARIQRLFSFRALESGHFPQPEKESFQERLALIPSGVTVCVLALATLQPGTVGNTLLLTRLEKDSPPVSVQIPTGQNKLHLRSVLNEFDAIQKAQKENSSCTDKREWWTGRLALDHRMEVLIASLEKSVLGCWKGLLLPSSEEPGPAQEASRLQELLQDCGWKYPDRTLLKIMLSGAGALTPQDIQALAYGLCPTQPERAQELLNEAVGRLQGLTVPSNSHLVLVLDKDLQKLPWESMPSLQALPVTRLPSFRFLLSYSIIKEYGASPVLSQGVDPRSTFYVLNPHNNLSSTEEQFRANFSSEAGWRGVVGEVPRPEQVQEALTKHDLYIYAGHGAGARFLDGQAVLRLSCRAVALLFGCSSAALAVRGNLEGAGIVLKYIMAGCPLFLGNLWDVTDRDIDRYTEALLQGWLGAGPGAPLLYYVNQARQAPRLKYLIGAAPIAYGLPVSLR

CC1(C)[N+]([O-])=c2ccc([N+](=O)[O-])cc2=[N+]1[O-] [Sepin-1, 2,2-dimethyl-5-nitro-2H-benzimidazole-1,3 dioxide]
IC50 [1]: 16 µM
IC50 [2]: 4.9 µM
IC50 [3]: 3.2 µM
IC50 [4]: 5 µM
IC50 [5]: 17.1 µM
IC50 [6]: 62.5 µM
IC50 [7]: 4.9 µM
IC50 [8]: 33.5 µM
IC50 [9]: 4.4 µM
IC50 [10]: 14 µM
IC50 [11]: 17.8 µM
IC50 [12]: 1 µM
IC50 [13]: 7.6 µM
IC50 [14]: 4.8 µM
IC50 [15]: 21.5 µM
IC50 [16]: 48.4 µM
IC50 [17]: 11.5 µM
IC50 [18]: 9 µM
IC50 [19]: 9 µM
IC50 [20]: 7.8 µM
IC50 [21]: 9 µM
IC50 [22]: 53.1 µM
IC50 [23]: 8.6 µM
inhibition of Rad21 cleavage by activated Separase [24]: could inhibit the Rad21 cleavage by activated Separase; also recorded: inhibits the cleavage of Separase substrate Rad21
activation of caspase-3 [25]: caspase-3 proenzyme was induced and activated
cleavage of poly(ADP-ribose) polymerase (Parp-1) [25]: Parp-1 cleavage

— US10052310B2, “Separase inhibitors and uses thereof” (Baylor College of Medicine, priority 2013, dated 2018)
